Measured values published in patent US20120165304A1, “6,7,8,9-Tetrahydro-5H-1,4,7,10a-tetraaza-cyclohept[f]indene derivatives, pharmaceutical compositions containing these compounds, their use and processes for preparing them” (BOEHRINGER INGELHEIM INTERNATIONAL GMBH, priority 2008, published 2012).

Target: human 5-HT2C receptor (Homo sapiens, UniProt P28335, I156V/I160V/N158S)
Assay: cell-based

human 5-HT2C receptor, sequence (P28335 33-458 I156V/N158S/I160V limits assumed): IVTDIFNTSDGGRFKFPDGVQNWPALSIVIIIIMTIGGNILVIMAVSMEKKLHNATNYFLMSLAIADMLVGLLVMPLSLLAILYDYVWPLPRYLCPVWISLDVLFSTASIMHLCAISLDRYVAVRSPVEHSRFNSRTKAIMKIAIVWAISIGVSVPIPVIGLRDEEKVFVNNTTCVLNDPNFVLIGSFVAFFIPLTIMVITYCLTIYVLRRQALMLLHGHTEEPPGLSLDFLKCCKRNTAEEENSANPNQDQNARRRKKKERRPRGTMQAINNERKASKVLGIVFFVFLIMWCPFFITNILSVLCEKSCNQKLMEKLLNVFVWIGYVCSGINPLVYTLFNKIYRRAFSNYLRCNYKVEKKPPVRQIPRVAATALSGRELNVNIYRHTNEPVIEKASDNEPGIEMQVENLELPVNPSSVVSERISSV

SMILES | EC50 [nM]
O=C(C1CN(c2c3c(nc4c(Br)cnn24)CCNCC3)C1)N1CCC2(CCCCC2)CC1 [Example 31.132] | 254
CN1CCc2nc3ccnn3c(N3CC(C(=O)N4CCC5(CC5)C4)C3)c2CC1 [Example 36.37] | 61
CN1CCCN(C(=O)C2CN(c3c4c(nc5ccnn35)CCNCC4)C2)CC1 [Example 37.10] | 2
O=C(C1CN(c2c3c(nc4ccnn24)CCNCC3)C1)N1CCC(Oc2ccccn2)CC1 [Example 31.230] | 54
O=C(C1CN(c2c3c(nc4ccnn24)CCNCC3)C1)N1CCC(F)(F)CC1 [Example 31.203] | 67
CN1CCc2nc3ccnn3c(N3CC(C(=O)N4CCN(C5CC5)CC4)C3)c2CC1 [Example 36.24] | 228
c1ccc(C2CCN2c2c3c(nc4ccnn24)CCNCC3)cc1 (centres unmarked) [Example 21, 10-(2-Phenyl-azetidin-1-yl)-6,7,8,9-tetrahydro-5H-1,4,7,10a-tetraaza-cyclohepta[f]indene] | 5200
C=C1CCN(C(=O)C2CN(c3c4c(nc5ccnn35)CCNCC4)C2)CC1 [Example 31.229] | 108
O=C(C1CN(c2c3c(nc4ccnn24)CCNCC3)C1)N1CCCC(F)C1 (centres unmarked) [Example 31.193] | 64
Cc1ncccc1OC1CN(c2c3c(nc4ccnn24)CCNCC3)C1 [Example 35.24] | 120
O=C(C1CN(c2c3c(nc4ccnn24)CCNCC3)C1)N1CC[C@H]2CCCC[C@@H]2C1 [Example 31.130] | 57
COc1ccc(Cl)c(OCC2CN(c3c4c(nc5ccnn35)CCNCC4)C2)c1 [Example 15.27] | 7
Fc1cc(F)c2nc(C3CN(c4c5c(nc6ccnn46)CCNCC5)C3)[nH]c2c1 [Example 34.24] | 136
CN1CC(NC(=O)C2CN(c3c4c(nc5ccnn35)CCNCC4)C2)C1 [Example 37.64] | 4
Cn1c(C2CN(c3c4c(nc5ccnn35)CCNCC4)C2)nc2ccc(F)cc21 [Example 34.4] | 24
O=C(NC1(c2ccccc2)CC1)C1CN(c2c3c(nc4ccnn24)CCNCC3)C1 [Example 31.92] | 921
CN(Cc1cccc(Br)c1)C(=O)C1CN(c2c3c(nc4ccnn24)CCNCC3)C1 [Example 31.79] | 20
c1cc2nc3c(c(N4CCC4)n2n1)CCNCC3 [Example 7.4] | 5
CN(Cc1ccc(C#N)cc1)C(=O)C1CN(c2c3c(nc4ccnn24)CCNCC3)C1 [Example 31.2] | 14
Cc1cnn2c(N3CC(C(=O)N4CCCC(F)(F)C4)C3)c3c(nc12)CCNCC3 [Example 31.238] | 13
O=C(C1CN(c2c3c(nc4ccnn24)CCNCC3)C1)N1CCN(c2ccccc2)CC1 [Example 37.34] | 6
CC1CN(C(=O)C2CN(c3c4c(nc5ccnn35)CCNCC4)C2)CC(C)N1 (centres unmarked) [Example 37.13] | 1
O=C(C1CN(c2c3c(nc4ccnn24)CCNCC3)C1)N1CC=CC1 [Example 31.183] | 308
O=C(CC1CN(c2c3c(nc4ccnn24)CCNCC3)C1)N1CCc2ccccc21 [Example 33.1] | 19
CN(Cc1ccccc1Cl)C(=O)C1CN(c2c3c(nc4ccnn24)CCNCC3)C1 [Example 31.37] | 68
CCCn1c(C2CN(c3c4c(nc5ccnn35)CCNCC4)C2)nc2ccccc21 [Example 34.35] | 472
N#CC1CN(c2c3c(nc4ccnn24)CCNCC3)C1 [Example 22, 1-(6,7,8,9-Tetrahydro-5H-1,4,7,10a-tetraaza-cyclohepta[f]inden-10-yl)-azetidine-3-carbonitrile] | 1020

SMILES | EC50 [nM]
Cc1ccc(OC2CN(c3c4c(nc5ccnn35)CCNCC4)C2)cc1 [Example 35.45] | 129
CC#CCNC(=O)C1CN(c2c3c(nc4ccnn24)CCNCC3)C1 [Example 37.105] | 139
c1ccc(OCC2CN(c3c4c(nc5ccnn35)CCNCC4)C2)nc1 [Example 15.28] | 24
O=C(C1CN(c2c3c(nc4ccnn24)CCNCC3)C1)N1CCC(Nc2ccccc2)CC1 [Example 37.43] | 6
CC1(C(=O)N2CCc3c(cccc3C(F)(F)F)C2)CN(c2c3c(nc4ccnn24)CCNCC3)C1 [Example 32.3] | 1960
COC1(C)CCN(C(=O)C2CN(c3c4c(nc5ccnn35)CCNCC4)C2)CC1 [Example 31.220] | 55
CN1C2CCC1CC(NC(=O)C1CN(c3c4c(nc5ccnn35)CCNCC4)C1)C2 (centres unmarked) [Example 37.93] | 12
COC[C@@H]1CCN1c1c2c(nc3ccnn13)CCNCC2 [Example 8, (S)-10-(2-Methoxymethyl-azetidin-1-yl)-6,7,8,9-tetrahydro-5H-1,4,7,10a-tetraaza-cyclohepta[f]indene] | 272
Cc1ccccc1N1CCN(C(=O)C2CN(c3c4c(nc5ccnn35)CCNCC4)C2)CC1 [Example 37.37] | 9
CCN1CCCN(C(=O)C2CN(c3c4c(nc5ccnn35)CCN(C)CC4)C2)CC1 [Example 36.50] | 81
O=C(NCC1CCC1)C1CN(c2c3c(nc4ccnn24)CCNCC3)C1 [Example 37.50] | 51
CCOc1cccc(OC2CN(c3c4c(nc5ccnn35)CCNCC4)C2)c1 [Example 35.27] | 93
Clc1ccccc1OC1CN(c2c3c(nc4ccnn24)CCNCC3)C1 [Example 35.3] | 98
O=C(C1CN(c2c3c(nc4ccnn24)CCNCC3)C1)N1CCc2ccc(C(F)(F)F)cc21 [Example 31.157] | 34
CC(C)N1CCCN(C(=O)C2CN(c3c4c(nc5ccnn35)CCN(C)CC4)C2)CC1 [Example 36.49] | 78
Clc1ccccc1OCC1CN(c2c3c(nc4ccnn24)CCNCC3)C1 [Example 15.6] | 5
COc1ccc(C)cc1OCC1CN(c2c3c(nc4ccnn24)CCNCC3)C1 [Example 15.7] | 12
C[C@@H]1C[C@H](C)CN(C(=O)C2CN(c3c4c(nc5ccnn35)CCNCC4)C2)C1 [Example 31.180] | 36
O=C(NCCN1CCCCC1)C1CN(c2c3c(nc4ccnn24)CCNCC3)C1 [Example 37.81] | 40
O=C(C1CN(c2c3c(nc4ccnn24)CCNCC3)C1)N1CCN(c2ccc(F)cc2)CC1 [Example 37.8] | 8
O=C(C1CC1)N1CCN(C(=O)C2CN(c3c4c(nc5ccnn35)CCNCC4)C2)CC1 [Example 37.56] | 10
O=C(NCC1CCOC1)C1CN(c2c3c(nc4ccnn24)CCNCC3)C1 (centres unmarked) [Example 37.61] | 64
CO[C@H]1CCN(C(=O)C2CN(c3c4c(nc5ccnn35)CCN(C)CC4)C2)C1 [Example 36.41] | 337
CN(Cc1cccc(Cl)c1)C(=O)C1CN(c2c3c(nc4ccnn24)CCNCC3)C1 [Example 31.39] | 44
NC1CCN(C(=O)C2CN(c3c4c(nc5ccnn35)CCNCC4)C2)CC1 [Example 37.42] | 2
COc1ccccc1OCC1CN(c2c3c(nc4ccnn24)CCNCC3)C1 [Example 15.21] | 29
CCN(C(=O)C1CN(c2c3c(nc4ccnn24)CCNCC3)C1)C(C)C [Example 31.11] | 306

SMILES | EC50 [nM]
Fc1cc(Cl)ccc1OCC1CN(c2c3c(nc4ccnn24)CCNCC3)C1 [Example 15.12] | 9
OC[C@H]1CCN1c1c2c(nc3ccnn13)CCNCC2 [Example 8.2] | 105
Cc1cnn2c(N3CC(C(=O)N4c5ccccc5CC4C)C3)c3c(nc12)CCNCC3 (centres unmarked) [Example 31.241] | 84
CN(C(=O)C1CN(c2c3c(nc4ccnn24)CCNCC3)C1)C1CCCc2ccccc21 (centres unmarked) [Example 31.171] | 967
c1cc2nc3c(c(N4CCCCCC4)n2n1)CCNCC3 [Example 7.5] | 592
FC(F)(F)Oc1ccc(OC2CN(c3c4c(nc5ccnn35)CCNCC4)C2)cc1 [Example 35.32] | 411
O=C(C1CN(c2c3c(nc4ccnn24)CCNCC3)C1)N1CCC(Oc2ccc(F)c(F)c2)CC1 [Example 31.146] | 91
O=C(C1CN(c2c3c(nc4ccnn24)CCNCC3)C1)N1CC2CC(c3ccccc3)(C2)C1 [Example 31.232] | 95
Cc1cccc(CN(C)C(=O)C2CN(c3c4c(nc5ccnn35)CCNCC4)C2)n1 [Example 31.208] | 62
CN1CCc2nc3ccnn3c(N3CC(C(=O)N4CCC(N5CCCC5)CC4)C3)c2CC1 [Example 36.8] | 38
COc1ccc(OC2CN(c3c4c(nc5ccnn35)CCNCC4)C2)c(Cl)c1 [Example 35.19] | 87
CC(C)CCN(C)C(=O)C1CN(c2c3c(nc4ccnn24)CCNCC3)C1 [Example 31.74] | 175
CCC(CC)CNC(=O)C1CN(c2c3c(nc4ccnn24)CCNCC3)C1 [Example 37.88] | 36
O=C(C1CCCCC1)N1CCN(C(=O)C2CN(c3c4c(nc5ccnn35)CCNCC4)C2)CC1 [Example 37.101] | 70
c1nn2c(N3CCC3)c3c(nc2c1C1CC1)CCNCC3 [Example 29, 10-Azetidin-1-yl-3-cyclopropyl-6,7,8,9-tetrahydro-5H-1,4,7,10a-tetraaza-cyclohepta[f]indene] | 81
CN(Cc1cccc(C(F)(F)F)c1)C(=O)C1CN(c2c3c(nc4ccnn24)CCNCC3)C1 [Example 31.149] | 45
CCC#CCNC(=O)C1CN(c2c3c(nc4ccnn24)CCNCC3)C1 [Example 37.52] | 61
CC1(C)CC1CNC(=O)C1CN(c2c3c(nc4ccnn24)CCNCC3)C1 (centres unmarked) [Example 37.110] | 255
Cn1c(=O)ccc2c(OC3CN(c4c5c(nc6ccnn46)CCNCC5)C3)cccc21 [Example 35.1] | 41
C#CCCN(CC(C)C)C(=O)C1CN(c2c3c(nc4ccnn24)CCNCC3)C1 [Example 31.106] | 184
Cc1ccc(OC2CN(c3c4c(nc5ccnn35)CCNCC4)C2)c(C)c1 [Example 35.6] | 266
Cc1ccc(OCC2CN(c3c4c(nc5ccnn35)CCNCC4)C2)cc1 [Example 15.18] | 140
Cc1ccc(C2CCN(C(=O)C3CN(c4c5c(nc6ccnn46)CCNCC5)C3)CC2)cc1 [Example 31.144] | 66
O=C(C1CN(c2c3c(nc4ccnn24)CCNCC3)C1)N1CCC(C(F)(F)F)CC1 [Example 31.83] | 8
CC1(C)CCN(C(=O)C2CN(c3c4c(nc5c(Br)cnn35)CCNCC4)C2)C1 [Example 31.135] | 46
CN1CCc2nc3ccnn3c(N3CC(C(=O)NCC4CCN(C)CC4)C3)c2CC1 [Example 36.3] | 108
